Experimental data as given in publication PMC8327158, “PEGylated AdipoRon derivatives improve glucose and lipid metabolism under insulinopenic and high-fat diet conditions” (Journal of Lipid Research, 2021).

System: HFD-fed wild-type mice
Assay: Sphingolipid levels in tissues and serum of HFD-fed mice by mass spectrometry
Assay type: in vivo, mouse
Details: average ± SD
Procedure: Six-week-old wild-type male mice were fed HFD for 4 weeks or 7 months In total, 5 mg/Kg of PBS, Adiporon, AdipoRonPEG5, AdipoRonPEG6HTL were injected twice a day for 5 days. After 5 days of treatment, systemic test is performed, and serum (Before and after treatment), subcutaneous, epididymal, liver, heart samples were harvested for qPCR and sphingolipid analysis.
Flash-frozen tissue samples (~40 mg) in a borosilicate glass tube were quenched with 2.0 ml of organic extraction solvent (isopropanol: ethyl acetate, 15:85; v:v) and homogenized with a mechanical tissue disruptor. Immediately afterward, 20 μl of organic internal standard solution was added (Ceramide/Sphingoid Internal Standard Mixture II diluted 1:10 in ethanol). The mixture was vortexed for 20 s and sonicated in ultrasonic bath for 40 min at 40°C. The organic extract was allowed to reach room temperature, and 1.5 ml of HPLC water was added and a two-phase liquid-liquid extraction was performed. The upper phase was transferred to a new clean tube, and the lower aqueous phase containing the protein pellet was re-extracted with additional 2.0 ml of organic extraction solvent. The organic phases were combined and dried under nitrogen stream at 40°C. Dried extracts were stored at –80°C until analysis. For analysis of ceramides and sphingoid base species, the dried residues were reconstituted in 200 μl of methanol. Sphingomyelins required a sample dilution of 1:50 in methanol prior to analysis. Serum sphingolipids were extracted using a similar methodology requiring 25 μl of serum.
Liver, subcutaneous adipose tissue, pancreas, pancreatic islets were initially homogenized in 500 μl of cold PBS using an ultrasonic probe disruptor and keeping the sample on ice during sonication. In total, 50 μl of aqueous homogenate was aliquoted for protein determination. In total, 400 μl of the lysate was immediately quenched in 2.0 ml of organic extraction solvent.
In total, 5 μl of reconstituted samples was injected into an LC/MS/MS system for the analysis of ceramides and sphingoid bases, and 1 μl injection was required for the analysis of sphingomyelins. The system consisted of a Shimadzu LCMS-8050 triple-quadrupole mass spectrometer with the dual ion source operating in electrospray positive ionization mode. The mass spectrometer is coupled to a Shimadzu Nexera X2 UHPLC system equipped with three solvent delivery modules LC-30AD, three degassing units DGU-20A5R, an autosampler SIL-30ACMP, and a column oven CTO-20AC operating at 40°C (Shimadzu Scientific Instruments, Columbia, MD). Six sphingoid bases (d18:1 sphingosine, d18:1 sphingosine-1-phosphate, d18:1 deoxysphingosine, d18:0 sphinganine, d18:0 sphinganine-1-phosphate, d18:0 deoxysphinganine) and […] ceramide species and their metabolites (C16:0, C16:0 dihydroceramide, C16:0 glucosylceramide, C16:0 lactosylceramide, C16:0 sphingomyelin, C18:0, C18:0 dihydroceramide, C18:0 glucosylceramide, C18:0 sphingomyelin, C18:1, C20:0, C22:0, C22:0 glucosylceramide, C24:0, C24:0 dihydroceramide, C24:0 lactosylceramide, C24:0 sphingomyelin, C24:1, C24:1 dihydroceramide, C24:1 glucosylceramide, C24:1 sphingomyelin). Quantitative analysis of sphingolipids was achieved using selective reaction monitoring scan mode. Lipid separation was achieved by reverse phase LC on a 2.1 (i.d.) × 150 mm Ascentis Express C8, 2.7 micron (Supelco, Bellefonte, PA) column under gradient elution, using three different mobile phases: eluent A consisting of methanol/water/formic acid, 600/400/0.8, v/v/v with 5 mM ammonium formate, eluent B consisting of methanol/formic acid, 1,000/0.8, v/v with 5 mM ammonium formate, and eluent C consisting of CH3OH/CH2Cl2 350/650. The concentration of each metabolite was determined according to calibration curves using the peak-area ratio of analyte versus corresponding internal standard. Calibration curves were generated using serial dilutions of each target analyte.

[1] = scWAT, 5 mg/kg twice a day 5 days
[2] = serum at day 0 (before treatment)
[3] = serum at day 5, 5 mg/kg twice a day 5 days

Structure (SMILES): O=C(COc1ccc(C(=O)c2ccccc2)cc1)NC1CCN(Cc2ccc(OCCOCCOCCOCCOCCO)cc2)CC1 [AdipoRonPEG5]
- Hexosyl 16:0 [1]: 1715352.2 ± 544724.48 pg/mg
- Hexosyl 18:0 [1]: 988756.1 ± 523374.82 pg/mg
- Hexosyl 20:0 [1]: 624871.6 ± 310850.97 pg/mg
- Hexosyl 22:0 [1]: 5932684.2 ± 2348171.67 pg/mg
- Hexosyl 24:0 [1]: 25627611.9 ± 14360009.57 pg/mg
- Hexosyl 24:1 [1]: 13838465.2 ± 7503242.47 pg/mg
- Lactosyl 16:0 [1]: 44866.5 ± 53044.09 pg/mg
- Lactosyl 18:0 [1]: 0.0 ± 0.0 pg/mg
- Lactosyl 22:0 [1]: 41846.1 ± 19236.41 pg/mg
- Lactosyl 24:1 [1]: 71016.8 ± 18649.91 pg/mg
- Lactosyl C24:0 [1]: 41489.9 ± 21166.47 pg/mg
- Sphingaine1P [1]: 40997.6 ± 18111.26 pg/mg
- Sphinganine [1]: 35831.5 ± 25048.56 pg/mg
- Sphingosine [1]: 65862.8 ± 45362.44 pg/mg
- Sphingosine1P [1]: 45575.1 ± 20925.35 pg/mg
- dCer 16:0 [1]: 12585.7 ± 3750.43 pg/mg
- dCer 18:0 [1]: 16110.9 ± 4383.33 pg/mg
- dCer 20:0 [1]: 82646.0 ± 51960.31 pg/mg
- dCer 22:0 [1]: 65558.1 ± 8753.52 pg/mg
- dCer 24:0 [1]: 87756.9 ± 10704.97 pg/mg
- dCer 24:1 [1]: 103545.6 ± 21754.88 pg/mg
- Cer 14:0 [2]: 9547.7 ± 2338.7 pg/mg
- Cer 16:0 [2]: 29166.2 ± 4917.61 pg/mg
- Cer 18:0 [2]: 8552.2 ± 1447.69 pg/mg
- Cer 18:1 [2]: 0 pg/mg
- Cer 20:0 [2]: 161041.9 ± 19909.93 pg/mg
- Cer 22:0 [2]: 2248954.3 ± 477468.89 pg/mg
- Cer 24:0 [2]: 1497571.4 ± 240898.06 pg/mg
- Cer 24:1 [2]: 1109542.1 ± 131449.16 pg/mg
- Cer 26:0 [2]: 11416.3 ± 5402.24 pg/mg
- Cer 26:1 [2]: 0 pg/mg
- DeoxySphinganie [2]: 0.0 ± 0.0 pg/mg
- Deoxysphingosine [2]: 0.0 ± 0.0 pg/mg
- Hexosyl 14:0 [2]: 2960.2 ± 1473.95 pg/mg
- Hexosyl 16:0 [2]: 3186431.1 ± 124319.92 pg/mg
- Hexosyl 18:0 [2]: 50804.8 ± 12885.62 pg/mg
- Hexosyl 20:0 [2]: 212177.0 ± 30736.45 pg/mg
- Hexosyl 22:0 [2]: 12426084.7 ± 1134587.25 pg/mg
- Hexosyl 24:0 [2]: 1547284.6 ± 152581.98 pg/mg
- Hexosyl 24:1 [2]: 4176146.7 ± 370105.27 pg/mg
- Lactosyl 16:0 [2]: 97139.2 ± 3984.55 pg/mg
- Lactosyl 18:0 [2]: 0.0 ± 0.0 pg/mg
- Lactosyl 22:0 [2]: 67539.8 ± 8954.59 pg/mg
- Lactosyl 24:1 [2]: 91085.1 ± 17618.54 pg/mg
- Lactosyl C24:0 [2]: 106966.9 ± 12842.2 pg/mg
- Sphingaine1P [2]: 236098.7 ± 23069.11 pg/mg
- Sphinganine [2]: 40000.3 ± 8021.4 pg/mg
- Sphingosine [2]: 34674.5 ± 9280.02 pg/mg
- Sphingosine1P [2]: 626634.8 ± 40618.85 pg/mg
- dCer 16:0 [2]: 19797.0 ± 3523.66 pg/mg
- dCer 18:0 [2]: 11474.0 ± 1631.86 pg/mg
- dCer 20:0 [2]: 4088.3 ± 831.07 pg/mg
- dCer 22:0 [2]: 358570.9 ± 58282.32 pg/mg
- dCer 24:0 [2]: 224332.4 ± 35925.97 pg/mg
- dCer 24:1 [2]: 127711.1 ± 26772.71 pg/mg
- Cer 14:0 [3]: 9929.6 ± 3137.7 pg/mg
- Cer 16:0 [3]: 15778.4 ± 1918.13 pg/mg
- Cer 18:0 [3]: 13708.7 ± 1433.97 pg/mg
- Cer 18:1 [3]: 0 pg/mg
- Cer 20:0 [3]: 132529.6 ± 32152.61 pg/mg
- Cer 22:0 [3]: 1388023.2 ± 196403.0 pg/mg
- Cer 24:0 [3]: 1824217.1 ± 192203.29 pg/mg
- Cer 24:1 [3]: 1024425.3 ± 215659.12 pg/mg
- Cer 26:0 [3]: 16852.6 ± 6836.06 pg/mg
- Cer 26:1 [3]: 0 pg/mg
- DeoxySphinganie [3]: 0.0 ± 0.0 pg/mg
- Deoxysphingosine [3]: 0.0 ± 0.0 pg/mg
- Hexosyl 14:0 [3]: 2152.8 ± 1534.14 pg/mg
- Hexosyl 16:0 [3]: 4458327.8 ± 279958.81 pg/mg
- Hexosyl 18:0 [3]: 102580.4 ± 20477.28 pg/mg
- Hexosyl 20:0 [3]: 312105.6 ± 82139.38 pg/mg
- Hexosyl 22:0 [3]: 7780658.1 ± 1388198.99 pg/mg
- Hexosyl 24:0 [3]: 1624021.9 ± 177684.63 pg/mg
- Hexosyl 24:1 [3]: 3454314.7 ± 273336.65 pg/mg
- Lactosyl 16:0 [3]: 90624.9 ± 13005.26 pg/mg
- Lactosyl 18:0 [3]: 0.0 ± 0.0 pg/mg
- Lactosyl 22:0 [3]: 65007.0 ± 14500.42 pg/mg
- Lactosyl 24:1 [3]: 157880.8 ± 14580.32 pg/mg
- Lactosyl C24:0 [3]: 128620.1 ± 18235.69 pg/mg
- Sphingaine1P [3]: 512041.7 ± 138152.22 pg/mg
- Sphinganine [3]: 15276.5 ± 1962.03 pg/mg
- Sphingosine [3]: 21363.8 ± 828.59 pg/mg
- Sphingosine1P [3]: 1121550.6 ± 208889.89 pg/mg
- dCer 16:0 [3]: 3599.4 ± 848.4 pg/mg
- dCer 18:0 [3]: 4287.0 ± 935.1 pg/mg
- dCer 20:0 [3]: 2230.0 ± 831.07 pg/mg
- dCer 22:0 [3]: 88406.3 ± 22461.25 pg/mg
- dCer 24:0 [3]: 67386.7 ± 20818.51 pg/mg
- dCer 24:1 [3]: 33950.3 ± 10616.3 pg/mg
